According to patent US20190297888A1, “FUNGICIDAL COMPOUNDS AND MIXTURES FOR FUNGAL CONTROL IN CEREALS” (Dow AgroSciences LLC, priority 2016, published 2019):

Tests used:
Format in all cases: in vivo
[1] = system: Puccinia triticina (PUCCRT); assay: Field assessment of Compound I and penthiopyrad on brown rust of wheat (AUDPC % control); conditions: AUDPC-based, 2 field trials
Description: Treatments consisting of the compound of Formula I and fungicide compound penthiopyrad were applied either using individually or as a two-way mixture of penthiopyrad with the compound of Formula I. The compound of Formula I was applied with Agnique BP-420 (50% w/w at 0.3% v/v) at 75 and 150 g ai/ha and Penthiopyrad (Vertisan) was applied at 125 and 200 g ai/ha. Commercial standards used in the studies were Fluxapyroxad (Imtrex), applied at 100 g ai/ha, and Metconazole+Fluxapyroxad (Librax), applied at 161 g ai/ha.
Fungicidal treatments containing the compound of Formula I and penthiopyrad, either individually or as a two-way mixture, were assessed against brown rust of wheat (PUCCRT) in two separate field trials. In the first trial, fungicidal treatments were applied at B37-39 (protectant, approximately 0% infection at application) growth stages of wheat (TRZAW, MV Vanek variety) under natural infection of brown rust. The treatment was part of an experimental trial designed as a randomized complete block with four replications and a plot of approximately 2×3 m. Fungicidal treatments were applied at a water volume of 200 L/ha, using a backpack plot sprayer with a TEEJET QJ90-2XTT110 015 Nozzle.
In the second trial, fungicidal treatments containing the compound of Formula I and penthiopyrad, either individually or as a two-way mixture, were applied at B33 (curative, approximately 6.6% infection at application) growth stage of wheat (TRZAW, Miradoux variety) under natural infection of brown rust. The treatments were part of an experimental trial designed as a randomized complete block with four replications and a plot of approximately 2×3 m. Fungicidal treatments were applied at a water volume of 200 L/ha, using a backpack plot sprayer with a HARDI MD 110-02 Nozzle.
(§1) Disease severity (percentage of visual diseased foliage on whole plot or leaves) in both field trials was recorded following EPPO PP1/26 guideline prescriptions. Area under the disease progress curve (AUDPC) was calculated for each plot in both trials using the sets of recorded severity data. Relative AUDPC (% control based on AUDPC) was calculated as percent of the nontreated control. Final results for the control of brown rust of wheat by the compound of Formula I, penthiopyrad and mixtures are reported as an average of the relative AUDPC calculated over all three field trials. Statistical analysis was done according to ANOVA and Tukey's test (p=0.10).

[2] = system: Rhyncosporium secalis (RHYNSE); assay: Field assessment of Compound I and fluxapyroxad on leaf scald of barley (AUDPC % control); conditions: AUDPC-based, one field trial
Protocol: (§2) Commercial standards used in the studies were Proline 275 (275 g ai/L Prothioconazole), applied at 150 g ai/ha, and SiltraXpro (200 g ai/L prothioconazole+60 g ai/[…] bixafen), applied at 195 g ai/ha.
Fungicidal treatments containing the compound of Formula I and fluxapyroxad, either individually or as a two-way mixture, were assessed against scald of barley (RHYNSE) in one field trial. In the trial, fungicidal treatments were applied at B37-39 growth stages of winter barley (HORVW, Maris Otter variety) under natural infection of barley scald (protectant test, approximately 1% infection on leaf 4 at application). All treatments were part of an experimental trial designed as a randomized complete block with four replications.
(§3) Disease severity (percentage of visual diseased foliage on whole plot or leaves) in the field trial was recorded following EPPO PP1/26 guideline prescriptions. Area under the disease progress curve (AUDPC) was calculated for each plot in the trial using the sets of recorded severity data. Relative AUDPC (% control based on AUDPC) was calculated as percent of the nontreated control. […] Statistical analysis was done according to ANOVA and Tukey's test (p=0.10).

Puccinia hordei (PUCCHD) = assay: Field assessment of Compound I and fluxapyroxad on rust of barley (AUDPC % control); conditions: AUDPC-based, 2 field trials
Protocol: as §2
Fungicidal treatments containing the compound of Formula I and fluxapyroxad, either individually or as a two-way mixture, were assessed against rust of barley (PUCCHD) in two separate field trials. In both trials, fungicidal treatments were applied at B37-39 growth stages of winter barley (Lomeritt variety) under natural infection of barley rust. All treatments were part of an experimental trial designed as a randomized complete block with four replications.
as §3, with “in […]” for “in the”, “field trials” for “field trial”, “in both trials” for “in the trial”

[3] = system: Puccinia triticina (PUCCRT); assay: Field assessment of Compound I and fluxapyroxad on brown rust of wheat (AUDPC % control); conditions: AUDPC-based, 5 field trials
Description: Treatments consisting of the compound of Formula I and fungicide compound fluxapyroxad against fungal diseases of wheat were applied either using individually or as a two-way mixture of fluxapyroxad with the compound of Formula I. The compound of Formula I was applied with Agnique BP-420 (50% w/w at 0.3% v/v) at 50, 75 and 100 g ai/ha and Imtrex (Fluxapyroxad 62.5 g/L) was applied at 50, 75 and 100 g ai/ha. Commercial standards used in the studies were Adexar (epoxiconazole+fluxapyroxad—125 g/L), applied at 1.2 and 1.6 L pr/ha, and Elatus Era (benzovindiflupyr+prothioconazole—225 g/L), applied at 1.0 L pr/ha.
Fungicidal treatments containing the compound of Formula I and fluxapyroxad, either individually or as a two-way mixture, were assessed against brown rust of wheat (PUCCRT) in five separate field trials. In all trials, fungicidal treatments were applied at B34-51 growth stages of winter wheat (TRZAW; ATOUDUR, MIRADOUX, IRIDIUM or MV Vanek variety) under natural infection of brown rust (protectant tests, approximately 0-8% infection on leaf 3 or 4 at application). All treatments were part of an experimental trial designed as a randomized complete block with four replications and plot sizes of approximately 2×2 m to 2×7.5 m. Fungicidal treatments were applied at a water volume of 200 L/ha, using a backpack plot sprayer (BKPKAIR or BKPCENG) with a FLATFAN or AIRASST Nozzle pressurized at 210-250 kPa.
as §1, with “leaves) in five field trials” for “leaves) in both field trials”, “Formula I, fluxapyroxad and mixtures” for “Formula I, penthiopyrad and mixtures”, “over all five field trials.” for “over all three field trials.”

Compound	PUCCRT % Control ([1]; rate 75 g ai/ha) [%]	PUCCRT % Control ([1]; rate 150 g ai/ha) [%]	RHYNSE % Control ([2]; rate 75 g ai/ha) [%]	RHYNSE % Control ([2]; rate 100 g ai/ha) [%]	RHYNSE % Control ([2]; rate 150 g ai/ha) [%]	PUCCHD % Control (Puccinia hordei (PUCCHD); rate 75 g ai/ha) [%]	PUCCHD % Control (Puccinia hordei (PUCCHD); rate 100 g ai/ha) [%]	PUCCHD % Control (Puccinia hordei (PUCCHD); rate 150 g ai/ha) [%]	PUCCRT % Control ([3]; rate 50 g ai/ha) [%]	PUCCRT % Control ([3]; rate 75 g ai/ha) [%]	PUCCRT % Control ([3]; rate 100 g ai/ha) [%]	RHYNSE % Control ([2]; rate 45 g ai/ha) [%]	RHYNSE % Control ([2]; rate 62.5 g ai/ha) [%]	PUCCHD % Control (Puccinia hordei (PUCCHD); rate 45 g ai/ha) [%]	PUCCHD % Control (Puccinia hordei (PUCCHD); rate 62.5 g ai/ha) [%]
N#Cc1ccc(Oc2ccc(C(F)(F)C(O)(Cn3ncnc3S)c3ccc(F)cc3F)nc2)cc1 (centres unmarked) [Compound I, 4-((6-(2-(2,4-difluorophenyl)-1,1-difluoro-2-hydroxy-3-(5-mercapto-1H-1,2,4-triazol-1-yl)propyl)pyridin-3-yl)oxy)benzonitrile]	93.5	94.6	67.2	61.3	81.1	71.0	75.3	88.8	86.0	90.0	93.4				
Cn1cc(C(=O)Nc2ccccc2-c2cc(F)c(F)c(F)c2)c(C(F)F)n1 [Fluxapyroxad, 3-(difluoromethyl)-1-methyl-N-(3′,4′,5′-trifluorobiphenyl-2-yl)pyrazole-4-carboxamide]				95.7			68.7		84.0	94.0	95.3	78.7	77.2	49.0	54.5
